Literature values in patent publication US20230309840A1, “TARGETING ABNORMAL CELL POPULATIONS FOR APOPTOSIS” (priority 2020, published 2023).

Key:
[1] = system: senescent human fibroblasts; conditions: at 100 μM
cancer cells = conditions: for anti-cancer activity: compared with curcumin
[2] = in vivo
Drosophila melanogaster = conditions: in vivo
Caenorhabditis elegans = conditions: in vivo
[3] = system: airway inflammation and oxidative stress
[4] = system: prostate cancer (Pica) cell
tumor = conditions: tumor-bearing mouse model, vs free cisplatin

C[C@H]1[C@H](OC(=O)CCC(=O)O)O[C@@H]2O[C@@]3(C)CC[C@H]4[C@H](C)CC[C@@H]1[C@@]24OO3 [Artesunate]
effect on cancer cell lines (cancer cell lines): cytotoxic effects

CC[C@H]1OC(=O)[C@H](C)[C@@H](O[C@H]2C[C@@](C)(OC)[C@@H](O)[C@H](C)O2)[C@H](C)[C@@H](O[C@@H]2O[C@H](C)C[C@H](N(C)C)[C@H]2O)[C@](C)(O)C[C@@H](C)CN(C)[C@H](C)[C@@H](O)[C@]1(C)O [Azithromycin]
elimination of senescent cells [1]: selectively eliminated large numbers of senescent cells | effect on control cells (control cells): without affecting control cells

COc1ccc(/C=C/C(=O)CC(=O)/C=C/c2ccc(OC)c(OC)c2)cc1OC [DIMC, dimethoxycurcumin]
anti-cancer activity (cancer cells): better anti-cancer activities than curcumin

O=C1/C(=C/c2ccccc2F)CNC/C1=C\c1ccccc1F [EF24]
killing of senescent cells in combination (senescent cells; combined with Navitoclax): synergistically kill senescent cells | cell viability of senescent cells (senescent cells; variety of senescent cells): selectively decrease the cell viability | anti-cancer activity (cancer cells): more efficacious against various cancer cells | potency in inducing cancer cell death (cancer cells; relative to curcumin): 10 fold

CC1(C)C=C(CN2C/C(=C\c3ccc(F)cc3)C(=O)/C(=C/c3ccc(F)cc3)C2)C(C)(C)N1O [HO-3867]
anti-cancer activity (cancer cells): better anti-cancer activities than curcumin

O=c1c(O)c(-c2ccc(O)c(O)c2)oc2cc(O)cc(O)c12 [Quercetin]
bioavailability [2]: very low | solubility in water: poorly soluble in water

CC[C@H]1OC(=O)[C@H](C)[C@@H](O[C@H]2C[C@@](C)(OC)[C@@H](O)[C@H](C)O2)[C@H](C)[C@@H](O[C@@H]2O[C@H](C)C[C@H](N(C)C)[C@H]2O)[C@](C)(O)C[C@@H](C)/C(=N\OCOCCOC)[C@H](C)[C@@H](O)[C@]1(C)O [Roxithromycin]
elimination of senescent cells [1]: selectively eliminated large numbers of senescent cells

COc1cc(/C=C/C(=O)CC(=O)/C=C/c2ccc(O)c(OC)c2)ccc1O [curcumin, Curcumin]
lifespan and health span (Drosophila melanogaster): prolong lifespan and extend health span | bioavailability [2]: poor oral bioavailability | solubility in water: low aqueous solubility | lifespan and health span (Caenorhabditis elegans): prolong lifespan and extend health span

[HH] [hydrogen gas, hydrogen]
number of total cells, eosinophils, and lymphocytes ([3]; bronchial alveolar lavage fluid, inhalation): significantly reduced | IL-4 serum level ([3]; following inhalation): significantly decreased | activity of superoxide dismutase ([3]; inhalation): markedly upregulated | increased level of malondialdehyde and myeloperoxidase ([3]; inhalation): significantly attenuated | level of IL-4, IL-13, TNF-α and chemokine (C-X-C motif) ligand 15 ([3]; inhalation): increased the level

CC(C)=CCC/C(C)=C/CC/C(C)=C/CC[C@]1(C)CCc2cc(O)c(C)c(C)c2O1 [γ-Tocotrienols]
inhibition of cell proliferation and invasion [4]: potent and specific inhibitor

Tf-cisplatin complex: transferrin (Tf) conjugated cisplatin
toxicity in other tissues (tumor): less toxicity in other tissues | tumor growth inhibition (tumor): inhibited tumor growth in vivo more effectively than free cisplatin
